Literature values, collected in US20060204442A1, “Magnetically targetable particles comprising magnetic components and biocompatible polymers for site-specific delivery of biologically active agents” (Bankruptcy Estate of Ferx, Inc., priority 2003, published 2006).

System: cell lines of the national Cancer Institute's Anticancer Drug Screen Panel
Conditions: Rixe et al., Biochem Pharmacol 52

IC50, published value: 0.537 µg/mL
SMILES: [NH2][Pt]([NH2])([Cl])[Cl] [CDDP, cisplatin]
